This assay has as its target 60S ribosomal protein L19-A (Saccharomyces cerevisiae (strain ATCC 204508 / S288c), UniProt P0CX82). Kind of assay: TOR pathway reporter RPL19A-GFP modulators – cell-based, cherry pick 3, SAR, flow cytometry GFP, multiplex, dose response (AID 488814). Conditions: inactive by the depositor's call. Background: A flow cytometer gives signals particle by particle.

In BindingDB's records for doi:10.7270/Q2H70D87 (Nmmlsc, 2011) one finds EC50 data, which are given here for 2 compounds.

Molecules are shown by their SMILES.

Chain of 60S ribosomal protein L19-A (P0CX82 whole entry): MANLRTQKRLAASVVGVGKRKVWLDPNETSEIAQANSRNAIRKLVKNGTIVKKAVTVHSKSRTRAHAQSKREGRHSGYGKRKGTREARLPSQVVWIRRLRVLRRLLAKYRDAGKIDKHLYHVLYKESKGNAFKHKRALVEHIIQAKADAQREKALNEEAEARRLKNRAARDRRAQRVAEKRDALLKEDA

With `CCOC(=O)CS(=O)(=O)c1nc(-c2ccccc2)cc(C(F)(F)F)n1` [2-[4-phenyl-6-(trifluoromethyl)pyrimidin-2-yl]sulfonylacetic acid ethyl ester], a half-maximal response (EC50) required 55.7 µM. In other words, the double-digit micromolar range.

Consider `Cc1ccc(C(=O)Nc2nc(-c3ccccn3)cs2)o1` [5-methyl-N-[4-(2-pyridinyl)-2-thiazolyl]-2-furancarboxamide], for which a half-maximal response (EC50) required 38.2 µM.
